# Assay results as given in ChEMBL document CHEMBL3885881, “DrugMatrix”.
# Species: Rattus norvegicus
# Assay: DrugMatrix - Regimen: Daily Repeat
# Type: toxicity, organism-based, Sprague-Dawley
# Set-up: regimen Daily Repeat, gender Male, age 6-8 weeks
# Conditions: in vivo, iv, vehicle 100 % SALINE; for ABSOLUTE BASOPHIL / ABSOLUTE EOSINOPHIL / ABSOLUTE LYMPHOCYTE / ABSOLUTE MONOCYTE / ABSOLUTE SEGMENTED NEUTROPHIL / BASOPHIL / EOSINOPHIL / ERYTHROCYTE COUNT / HEMATOCRIT / HEMOGLOBIN / LEUKOCYTE COUNT / LYMPHOCYTE / MEAN CORPUSCULAR HEMOGLOBIN / MEAN CORPUSCULAR HEMOGLOBIN CONCENTRATION / MEAN CORPUSCULAR VOLUME / MONOCYTE / NEUTROPHIL / NUCLEATED RED BLOOD CELLS / PLATELET COUNT: tissue Blood; for ALANINE AMINOTRANSFERASE / ALBUMIN / ALKALINE PHOSPHATASE / ASPARTATE AMINOTRANSFERASE / BLOOD UREA NITROGEN / CARBON DIOXIDE / CHLORIDE / CHOLESTEROL / CREATINE PHOSPHOKINASE / CREATININE / GLUCOSE / LACTATE DEHYDROGENASE / LIPASE / PHOSPHORUS / POTASSIUM / SODIUM / TOTAL BILIRUBIN / TOTAL PROTEIN / URIC ACID: tissue Plasma
# [1] = 0 mg/kg, 72 h, dose level Control, time 3 day
# [2] = 0 mg/kg, 120 h, dose level Control, time 5 day
# [3] = 29 mg/kg, 72 h, dose level Low, time 3 day
smiles,measurement,setting,value
C[n+]1ccccc1/C=N/O.[Cl-] [PRALIDOXIME CHLORIDE],ABSOLUTE BASOPHIL,[1],0 CELLS/uL
same,ABSOLUTE EOSINOPHIL,[1],53.17 CELLS/uL
same,ABSOLUTE LYMPHOCYTE,[1],13731.5 CELLS/uL
same,ABSOLUTE MONOCYTE,[1],186.17 CELLS/uL
same,ABSOLUTE SEGMENTED NEUTROPHIL,[1],1645.83 CELLS/uL
same,BASOPHIL,[1],0%
same,EOSINOPHIL,[1],0.33%
same,ERYTHROCYTE COUNT,[1],5.57 x10E6/uL
same,HEMATOCRIT,[1],36.33%
same,HEMOGLOBIN,[1],13.47 G/DL
same,LEUKOCYTE COUNT,[1],15.62 x10E3/uL
same,LYMPHOCYTE,[1],88.5%
same,MEAN CORPUSCULAR HEMOGLOBIN,[1],24.22 pg
same,MEAN CORPUSCULAR HEMOGLOBIN CONCENTRATION,[1],37.1 G/DL
same,MEAN CORPUSCULAR VOLUME,[1],65.35 fL
same,MONOCYTE,[1],1.17%
same,NEUTROPHIL,[1],10%
same,NUCLEATED RED BLOOD CELLS,[1],0.17 /100WBC
same,PLATELET COUNT,[1],1295.5 x10E3/uL
same,ALANINE AMINOTRANSFERASE,[1],46.83 u/L
same,ALBUMIN,[1],4.37 G/DL
same,ALKALINE PHOSPHATASE,[1],414.33 u/L
same,ASPARTATE AMINOTRANSFERASE,[1],72.5 u/L
same,BLOOD UREA NITROGEN,[1],17 mg/dL
same,CARBON DIOXIDE,[1],23.5 mmol/L
same,CHLORIDE,[1],102 MEQ/L
same,CHOLESTEROL,[1],80.33 mg/dL
same,CREATINE PHOSPHOKINASE,[1],207.83 u/L
same,CREATININE,[1],0.22 mg/dL
same,GLUCOSE,[1],172.17 mg/dL
same,LACTATE DEHYDROGENASE,[1],131 u/L
same,LIPASE,[1],10.33 u/L
same,PHOSPHORUS,[1],11.75 mg/dL
same,POTASSIUM,[1],6.83 MEQ/L
same,SODIUM,[1],145.28 MEQ/L
same,TOTAL BILIRUBIN,[1],0.22 mg/dL
same,TOTAL PROTEIN,[1],6.22 G/DL
same,URIC ACID,[1],1.9 mg/dL
same,ABSOLUTE BASOPHIL,[2],0 CELLS/uL
same,ABSOLUTE EOSINOPHIL,[2],33 CELLS/uL
same,ABSOLUTE LYMPHOCYTE,[2],12184 CELLS/uL
same,ABSOLUTE MONOCYTE,[2],108 CELLS/uL
same,ABSOLUTE SEGMENTED NEUTROPHIL,[2],958.33 CELLS/uL
same,BASOPHIL,[2],0%
same,EOSINOPHIL,[2],0.17%
same,ERYTHROCYTE COUNT,[2],5.9 x10E6/uL
same,HEMATOCRIT,[2],36.58%
same,HEMOGLOBIN,[2],13.33 G/DL
same,LEUKOCYTE COUNT,[2],13.28 x10E3/uL
same,LYMPHOCYTE,[2],91.17%
same,MEAN CORPUSCULAR HEMOGLOBIN,[2],22.67 pg
same,MEAN CORPUSCULAR HEMOGLOBIN CONCENTRATION,[2],36.47 G/DL
same,MEAN CORPUSCULAR VOLUME,[2],62.13 fL
same,MONOCYTE,[2],0.83%
same,NEUTROPHIL,[2],7.83%
same,NUCLEATED RED BLOOD CELLS,[2],0.33 /100WBC
same,PLATELET COUNT,[2],1475.33 x10E3/uL
same,ALANINE AMINOTRANSFERASE,[2],47 u/L
same,ALBUMIN,[2],4.35 G/DL
same,ALKALINE PHOSPHATASE,[2],368.33 u/L
same,ASPARTATE AMINOTRANSFERASE,[2],90.83 u/L
same,BLOOD UREA NITROGEN,[2],15.5 mg/dL
same,CARBON DIOXIDE,[2],26.5 mmol/L
same,CHLORIDE,[2],103.33 MEQ/L
same,CHOLESTEROL,[2],71.83 mg/dL
same,CREATINE PHOSPHOKINASE,[2],585.33 u/L
same,CREATININE,[2],0.19 mg/dL
same,GLUCOSE,[2],171.17 mg/dL
same,LACTATE DEHYDROGENASE,[2],388.83 u/L
same,LIPASE,[2],10.83 u/L
same,PHOSPHORUS,[2],11.75 mg/dL
same,POTASSIUM,[2],6.21 MEQ/L
same,SODIUM,[2],143.7 MEQ/L
same,TOTAL BILIRUBIN,[2],0.17 mg/dL
same,TOTAL PROTEIN,[2],6.17 G/DL
same,URIC ACID,[2],1.98 mg/dL
same,ABSOLUTE BASOPHIL,[3],0 CELLS/uL
same,ABSOLUTE EOSINOPHIL,[3],0 CELLS/uL
same,ABSOLUTE LYMPHOCYTE,[3],13602.67 CELLS/uL
same,ABSOLUTE MONOCYTE,[3],59 CELLS/uL
same,ABSOLUTE SEGMENTED NEUTROPHIL,[3],1538.33 CELLS/uL
same,BASOPHIL,[3],0%
same,EOSINOPHIL,[3],0%
same,ERYTHROCYTE COUNT,[3],5.23 x10E6/uL
same,HEMATOCRIT,[3],33.13%
same,HEMOGLOBIN,[3],12.77 G/DL
same,LEUKOCYTE COUNT,[3],15.2 x10E3/uL
same,LYMPHOCYTE,[3],89.67%
same,MEAN CORPUSCULAR HEMOGLOBIN,[3],24.4 pg
same,MEAN CORPUSCULAR HEMOGLOBIN CONCENTRATION,[3],38.53 G/DL
same,MEAN CORPUSCULAR VOLUME,[3],63.37 fL
same,MONOCYTE,[3],0.33%
same,NEUTROPHIL,[3],10%
same,NUCLEATED RED BLOOD CELLS,[3],0.33 /100WBC
same,PLATELET COUNT,[3],1243.67 x10E3/uL
same,ALANINE AMINOTRANSFERASE,[3],60 u/L
same,ALBUMIN,[3],4.27 G/DL
same,ALKALINE PHOSPHATASE,[3],485.33 u/L
same,ASPARTATE AMINOTRANSFERASE,[3],76.33 u/L
same,BLOOD UREA NITROGEN,[3],18.67 mg/dL
same,CARBON DIOXIDE,[3],25 mmol/L
same,CHLORIDE,[3],104.67 MEQ/L
same,CHOLESTEROL,[3],77.67 mg/dL
same,CREATINE PHOSPHOKINASE,[3],170 u/L
same,CREATININE,[3],0.26 mg/dL
same,GLUCOSE,[3],180.67 mg/dL
same,LACTATE DEHYDROGENASE,[3],87.67 u/L
same,LIPASE,[3],11 u/L
same,PHOSPHORUS,[3],13.93 mg/dL
same,POTASSIUM,[3],6.97 MEQ/L
same,SODIUM,[3],146.7 MEQ/L
same,TOTAL BILIRUBIN,[3],0.23 mg/dL
same,TOTAL PROTEIN,[3],5.97 G/DL
same,URIC ACID,[3],1.47 mg/dL
